The text below walks through data of patent US10813951B2, “Method of engineering chemotherapy drug resistant T-cells for immunotherapy” (CELLECTIS, priority 2013, dated 2020).

Like-named read-outs stand apart in the source and are kept apart here.

Data set [1] relates to WT T cells. Briefly: 6TG IC50, T cell viability. In kind it is cell-based. To be noted: FIG. 27. The protocol:
(§1) Such inactivation confers 6TG resistance that contrasts with the sensitivity of WT T cells to this drug. IC50 can be approximately determined to 10 nM and >100 μM for WT and HPRT KO T cells respectively.

For a further data set, the system named is HPRT KO T cells. Briefly: 6TG IC50, T cell viability. In kind it is cell-based. The conditions noted are these: FIG. 27. The protocol: as §1
The conditions of data set [2]: clinically relevant dose for ALL treatment, reported by EMA; cited from earlier work.
Data set [3] relates to CAR T cells negative control. Briefly: Sensitivity of CAR T cells to clofarabine and fludarabine (cell viability). In kind it is cell-based.
Description: (§7) These graphs allows determination of IC50 for both drugs clofarabine and fludarabine;
(§8) T cells were grown with or without clofarabine between D3 and D8 (see workflow 2 in FIG. 9), then they were incubated for 2 days (from D15 to D17) in media with different concentrations of clofarabine. T cells viability was then assessed by FACS analysis using the count bright kit.
(§9) These cells were then used to determined their sensitivity for clofarabine and fludarabine as performed before.
The test system of another data set is dCK/TRAC KO CAR T cells. The description is as above. It is filed as cell-based.
Data set [4] deals with WT T cells. Briefly: Clofarabine IC50, T cell viability by FACS. In kind it is cell-based. To be noted: 48 h, 2 days incubation with clofarabine 0 to 10 μM, FIG. 8, read-out: IC50 (amount of drug to decrease cell viability to 50%). The protocol:
(§2) FIG. 8 represents the percentage of cell viability of WT and dCK KO T cells (treated with 5 μg or 10 μg of mRNA encoding dCK2 TALE-nuclease pair) cultured for two days in the presence of increasing amount of clofarabine (10 nM to 10 μM). This graph allows to determine the Clofarabine IC50 toward both cell populations;
(§3) To further investigate the ability of T cells to resist to clofarabine, IC50 for this drug was determined on dCK KO and WT T cells. The cells were collected 3 days after transfection were incubated for 2 days in the presence of increasing concentration of clofarabine (0 to 10 μM). At the end of clofarabine incubation, viability of T cells was determined by FACS analysis2.
(§4) The results presented in FIG. 8 show clearly that the processing of dCK gene mediated by TALE-nucleases efficiently inactivates dCK activity in T cells. Such inactivation correlates to clofarabine resistance, contrasting with the sensitivity of WT T cells. The IC50 values (amount of drug to add in the media to decrease cell viability to 50%) correspond respectively to about 100 nM and 10 μM for WT and dCK KO T cells.

In a further data set the test system is dCK KO T cells. Briefly: Clofarabine IC50, T cell viability by FACS. It is filed as cell-based. The conditions noted are these: 48 h, 2 days incubation with clofarabine 0 to 10 μM, FIG. 8, read-out: IC50 (amount of drug to decrease cell viability to 50%). The method, then:
as §2, §3, §4

For the next data set, the system named is dCK KO Daudi cells. Briefly: Growth of Daudi cells in media with clofarabine. The conditions noted are these: up to 1 μM clofarabine, FIG. 19. In kind it is cell-based. The method, then:
(§5) FIG. 19 represents the growth rate (expressed in ×10^6 cells) for a period of 7 days of KO dCK Daudi cells versus WT Daudi cells in the absence or presence of increasing amounts of clofarabine (0.1 to 1 μM);
(§6) Daudi cells were cultured in media having different concentrations of clofarabine (0; 0.1; 0.25; 0.5 and 1 μM) for several days and counted at each passage.

In a further data set the test system is WT Daudi cells. Briefly: Growth of Daudi cells in media with clofarabine. To be noted: clofarabine 0.1 to 1 μM, FIG. 19. In kind it is cell-based. The method, then:
as §5, §6

In data set [5] the test system is double KO dCK/TCAR CAR T-cells. Briefly: Growth rate of double KO CAR T-cells in the presence of clofarabine. The conditions noted are these: 11 days, clofarabine 0.1 μM to 10 μM, FIG. 14. It is filed as cell-based. The protocol:
This experiment was performed on double KO dCK/TCAR T CAR T-cells (FMC63 which is described in patent application having the filing number PCT/EP2014/059662.) by culturing these cells during 11 days in media having different clofarabine (from 0.1 μM to 10 μM).

Description for dCK/TRAC KO CAR T cells: as §7, §8, §9

Consider `Nc1nc2nc[nH]c2c(=S)[nH]1` [6TG, 6-thioguanine], for which the results for the IC50 in the data set on WT T cells [1] and in the data set with HPRT KO T cells were roughly 10 nM and greater than 100000 nM, respectively.
With `Nc1nc(Cl)nc2c1ncn2[C@@H]1O[C@H](CO)[C@@H](O)[C@@H]1F` [clofarabine], in [2], the Cmax is 1000 nM. The IC50 is 0.1 nM in data set [3] (CAR T cells negative control, FIG. 17, read-out: IC50 clofarabine); 500 nM in the data set with dCK/TRAC KO CAR T cells (dCK/TRAC KO CAR T cells (FMC63), FIG. 17, read-out: IC50 clofarabine); roughly 100 nM with WT T cells [4]; roughly 10000 nM in the data set on dCK KO T cells. The figures for the “growth of cells in presence of clofarabine” value in the data set on dCK KO Daudi cells and in the data set on WT Daudi cells were “able to grow” and “clearly impaired”, respectively. Also, the “cell expansion in presence of clofarabine” value in data set [5] is recorded as “correct up to the 1 μM”.
`Nc1nc(F)nc2c1ncn2[C@@H]1O[C@H](CO)[C@@H](O)[C@@H]1O` [fludarabine]: the IC50 in data set [3] (T CAR control, FIG. 17, read-out: IC50 fludarabine) was 10000 nM; in the data set with dCK/TRAC KO CAR T cells (double KO CAR T cells, FIG. 17, read-out: IC50 fludarabine), 400000 nM.

What is called IC50 is the midpoint of a concentration-inhibition curve. As usually defined, the Cmax is the highest concentration seen after dosing.
